Usually IC50 stands for the concentration that gives 50% inhibition.

Four compounds from paper PMC6221957, “Phenol Derivatives From the Sponge-Derived Fungus Didymellaceae sp. SCSIO F46” (Frontiers in Chemistry, 2018) can be followed below.

Data set [1] can be described thus: Cytotoxicity assay (CCK-8), K562. The data set is classed as cell-based. As to conditions: human; K562 cells, CCK-8, 72 h; read-out: Cytotoxic results IC50, K562. As for the experimental part: (§1) Cytotoxic activities of the isolated compounds 1–17 and trichostatin A (TSA, positive control) against 10 tumor cell lines (K562, MCF-7, A549, Huh-7, H1975, HeLa, HL7702, HL60, MOLT-4, and DU145) were tested. […]. Cytotoxicity was assayed with the CCK-8 (Dojindo, Japan) method. 10 Cell lines K562, MCF-7, A549, Huh-7, H1975, Hela, HL7702, HL60, MOLT-4, and DU145 were purchased from Shanghai Cell Bank, Chinese Academy of Sciences. Cells were routinely grown and maintained in RPMI or DMEM media with 10% fetal bovine serum and with 1% penicillin/streptomycin. All cell lines were incubated in a Thermo/ Forma Scientific CO2 water-jacketed incubator with 5% CO2 in air at 37 °C. A cell viability assay was determined with the CCK-8 (Dojindo, Japan) assay. Cells were seeded at a density of 400−800 cells/well in 384-well plates and treated with various concentrations of compounds or solvent control. After 72 h incubation, CCK-8 reagent was added, and absorbance was measured at 450 nm using an Envision 2104 multilabel reader (PerkinElmer, USA). Dose−response curves were plotted to determine the IC50 values using Prism 5.0 (GraphPad Software Inc., USA).

The nature of data set [2]: Cytotoxicity assay (CCK-8), MCF-7. As to conditions: human; MCF-7 cells, CCK-8, 72 h; read-out: Cytotoxic results IC50, MCF-7. The format is cell-based. Here is the method: as §1
Data set [3] in a line: Cytotoxicity assay (CCK-8), A549. The format is cell-based. The following applies: human; A549 cells, CCK-8, 72 h; read-out: Cytotoxic results IC50, A549. As for the experimental part:
as §1

Data set [4] can be described thus: Cytotoxicity assay (CCK-8), Huh-7. The format is cell-based. As to conditions: human; Huh-7 cells, CCK-8, 72 h; read-out: Cytotoxic results IC50, Huh-7. As for the experimental part: as §1
Data set [5] is described as follows: Cytotoxicity assay (CCK-8), H1975. The data set is classed as cell-based. As to conditions: human; H1975 cells, CCK-8, 72 h; read-out: Cytotoxic results IC50, H1975. Here is the method:
as §1

A short description of data set [6]: Cytotoxicity assay (CCK-8), HeLa. The data set is classed as cell-based. The following applies: human; HeLa cells, CCK-8, 72 h; read-out: Cytotoxic results IC50, HeLa. Here is the method: as §1
Data set [7] in a line: Cytotoxicity assay (CCK-8), HL7702. The format is cell-based. The following applies: human; HL7702 cells, CCK-8, 72 h; read-out: Cytotoxic results IC50, HL7702. Here is the method: as §1
Data set [8] in a line: Cytotoxicity assay (CCK-8), HL60. The following applies: human; HL60 cells, CCK-8, 72 h; read-out: Cytotoxic results IC50, HL60. The data set is classed as cell-based. Here is the method:
as §1

A short description of data set [9]: Cytotoxicity assay (CCK-8), MOLT-4. The data set is classed as cell-based. The following applies: human; MOLT-4 cells, CCK-8, 72 h; read-out: Cytotoxic results IC50, MOLT-4. Here is the method:
as §1

Data set [10] can be described thus: Cytotoxicity assay (CCK-8), DU145. The data set is classed as cell-based. The following applies: human; DU145 cells, CCK-8, 72 h; read-out: Cytotoxic results IC50, DU145. As for the experimental part: as §1
Data set [11] is described as follows: Cytotoxicity against the panel of 10 tumor cell lines (summary statements). The format is cell-based. As to conditions: human. Here is the method: as §1
Data set [12] deals with 10 tumor cell lines (K562, MCF-7, A549, Huh-7, H1975, HeLa, HL7702, HL60, MOLT-4, and DU145). Described as above. The format is cell-based. Here is the method: as §1
The target in a further data set is T1, COX-2 (Ovis aries, UniProt P79208).
T1 construct: purchased
T1 sequence (P79208 17-603): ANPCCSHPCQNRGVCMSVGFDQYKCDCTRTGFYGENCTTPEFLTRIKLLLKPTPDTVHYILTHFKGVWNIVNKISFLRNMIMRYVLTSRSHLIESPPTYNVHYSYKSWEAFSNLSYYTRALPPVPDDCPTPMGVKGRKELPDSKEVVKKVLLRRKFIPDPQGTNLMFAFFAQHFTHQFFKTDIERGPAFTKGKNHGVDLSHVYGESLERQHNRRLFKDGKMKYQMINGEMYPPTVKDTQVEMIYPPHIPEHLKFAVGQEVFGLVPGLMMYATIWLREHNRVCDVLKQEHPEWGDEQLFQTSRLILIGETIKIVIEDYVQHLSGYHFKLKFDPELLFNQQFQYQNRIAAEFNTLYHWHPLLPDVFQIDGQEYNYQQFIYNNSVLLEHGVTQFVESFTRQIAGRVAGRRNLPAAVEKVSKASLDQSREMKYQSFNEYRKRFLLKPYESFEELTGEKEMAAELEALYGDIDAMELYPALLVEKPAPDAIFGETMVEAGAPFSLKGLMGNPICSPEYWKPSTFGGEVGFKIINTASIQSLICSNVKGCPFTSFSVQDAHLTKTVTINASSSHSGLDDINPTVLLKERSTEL
Kind of data set: COX-2 inhibitory activity assay (COX (ovine) inhibitor screening kit). The following applies: enzyme immunoassay. The data set is classed as biochemical. Here is the method:
According to the manufacturer's instructions. The test compounds were dissolved in DMSO and the final concentration was set as 10 μM.
The COX-2 enzyme is a well-established target for anti-inflammatory evaluation. […] The COX-2 enzyme catalyses the biosynthesis of PGH2 from arachidonic acid. In this assay, the PGF2a produced by the reduction of PGH2 with stannous chloride (SnCl2) was measured in this enzyme immunoassay. The stock solutions were prepared in dimethyl sulfoxide, and the final concentration was set as 10 mM for the isolated compounds. The percentage inhibition was calculated by comparison with control incubations.

The test system of another data set is K562. Kind of data set: Cytotoxicity assay (CCK-8), K562. The format is cell-based. The following applies: K562 cells, CCK-8, 72 h; read-out: Cytotoxic results IC50, K562. As for the experimental part:
as §1

Another data set deals with MCF-7. Kind of data set: Cytotoxicity assay (CCK-8), MCF-7. The format is cell-based. The following applies: MCF-7 cells, CCK-8, 72 h; read-out: Cytotoxic results IC50, MCF-7. Here is the method:
as §1

Another data set concerns A549. Kind of data set: Cytotoxicity assay (CCK-8), A549. The format is cell-based. The following applies: A549 cells, CCK-8, 72 h; read-out: Cytotoxic results IC50, A549. As for the experimental part: as §1
The next data set concerns Huh-7. Kind of data set: Cytotoxicity assay (CCK-8), Huh-7. The following applies: Huh-7 cells, CCK-8, 72 h; read-out: Cytotoxic results IC50, Huh-7. The data set is classed as cell-based. As for the experimental part: as §1
Another data set relates to H1975. The data set can be described thus: Cytotoxicity assay (CCK-8), H1975. The format is cell-based. The following applies: H1975 cells, CCK-8, 72 h; read-out: Cytotoxic results IC50, H1975. Here is the method:
as §1

A further data set concerns HeLa. Kind of data set: Cytotoxicity assay (CCK-8), HeLa. The data set is classed as cell-based. As to conditions: HeLa cells, CCK-8, 72 h; read-out: Cytotoxic results IC50, HeLa. As for the experimental part: as §1
Another data set has as its system HL7702. The data set can be described thus: Cytotoxicity assay (CCK-8), HL7702. The data set is classed as cell-based. The following applies: HL7702 cells, CCK-8, 72 h; read-out: Cytotoxic results IC50, HL7702. As for the experimental part: as §1
The test system of the next data set is HL60. The data set can be described thus: Cytotoxicity assay (CCK-8), HL60. The format is cell-based. As to conditions: HL60 cells, CCK-8, 72 h; read-out: Cytotoxic results IC50, HL60. As for the experimental part: as §1
The subject of a further data set is MOLT-4. Kind of data set: Cytotoxicity assay (CCK-8), MOLT-4. As to conditions: MOLT-4 cells, CCK-8, 72 h; read-out: Cytotoxic results IC50, MOLT-4. The format is cell-based. Here is the method: as §1
The next data set concerns DU145. Kind of data set: Cytotoxicity assay (CCK-8), DU145. The data set is classed as cell-based. The following applies: DU145 cells, CCK-8, 72 h; read-out: Cytotoxic results IC50, DU145. Here is the method:
as §1

Take `COC(=O)c1c(C)cc(O)cc1Oc1cc(C)cc(O)c1` [Compound 3, Diorcinol L]: the IC50 at 72 h in data set [1] turned out to be 43.5 µM; in data set [2] it was 10.5 µM; in data set [3], 17.7 µM; in data set [4] it was 5.7 µM; in data set [5], 15.3 µM; in data set [6], 7.1 µM. The IC50 at 72 h was 68.2 µM in data set [7]; 9.6 µM in data set [8]; > 200 µM in data set [9]; 9.1 µM in data set [10]; 5.7 to 9.6 µM in data set [11] (range over Huh-7, HeLa, DU145 and HL60 cells, read-out: Cytotoxicities IC50 values against Huh-7, HeLa, DU145 and HL60 cells); 5.7 to 68.2 µM in data set [11] (range over the tumor cell lines of Table 3, read-out: Cytotoxicities IC50 values in the range over the cell lines). In data set [12] (cell lines other than Huh-7, HeLa, DU145 and HL60), the “Activities against other five cell lines (in words)” value is reported as “weak activities”.
Compound `Cc1cc(O)c(O)c2oc3c(C(=O)O)cc(O)cc3c12` [Compound 6, Porric acid E] had a half-maximal inhibitory concentration (IC50) at COX-2 of 3.3 µM.
As to `Cc1cc(CO)c2c(=O)c3c(O)cccc3oc2c1` [Compound 8, 1-Hydroxy-6-methyl-8-hydroxy-methylxanthone], the 50% inhibitory concentration (IC50) at 72 h in data set [1] is > 200 µM; in data set [2], 141 µM; in [3], 128 µM; in [4] it was 122 µM; in [5], > 200 µM; in data set [6], 14.3 µM. Besides, the IC50 at 72 h in data set [7] is 33.8 µM; in data set [8], > 200 µM; in data set [9] it was > 200 µM; in data set [10] it was > 200 µM. Besides, in data set [12] (HeLa and HL7702 cells), the “Cytotoxicities against HeLa and HL7702 cells (in words)” value is recorded as “weak selective cytotoxicities”.
Regarding `CC(/C=C/C(=O)NO)=C\[C@@H](C)C(=O)c1ccc(N(C)C)cc1` [TSA, trichostatin A, reference compound], the IC50 with K562 was found to be 0.1 µM; in the data set with MCF-7, 0.7 µM; in the data set with A549, 0.3 µM; with Huh-7, 0.08 µM; in the data set with H1975, 0.09 µM; in the data set with HeLa it was 0.08 µM. Besides, the IC50 is 0.09 µM in the data set on HL7702, 0.04 µM in the data set on HL60, 0.03 µM in the data set on MOLT-4 and 0.04 µM in the data set on DU145.
